Laboratory results as given in PubChem BioAssay (NCI).
In brackets after ≈: the same amount, converted by molar mass.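 96-well plates; 48 h exposure; 5 concentrations. Endpoints by linear interpolation between flanking doses. Not reached: highest tested concentration assigned. GI50 marks 50% less growth. TGI: concentration producing complete growth inhibition.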

Legend:
Test in all cases: DTP human tumour cell line panel, 48 h
[1] = tested on: SK-MEL-2 melanoma
[2] = tested on: HCT-116 colon
[3] = tested on: MALME-3M melanoma
[4] = tested on: KM12 colon
[5] = tested on: SR leukemia
[6] = tested on: A549 NSCLC
[7] = tested on: SN12C renal
[8] = tested on: SK-MEL-5 melanoma
[9] = tested on: TK-10 renal
[10] = tested on: SW-620 colon
[11] = tested on: MDA-MB-231 breast

Structure (SMILES): COc1c(O)cc(C(=O)O[C@@H]2Cc3c(O)cc(O)cc3O[C@@H]2c2cc(O)c(O)c(O)c2)cc1O
- TGI [1]: > 100 µM
- TGI [2]: 35.4 µM
- TGI [3]: > 100 µM
- TGI [4]: 39 µM
- TGI [5]: 95.8 µM
- TGI [6]: 51.2 µM
- TGI [7]: 37.3 µM
- TGI [8]: 44.3 µM
- TGI [9]: > 100 µM
- TGI [10]: 59.8 µM

Structure (SMILES): S=C1SC(c2ccc(Cl)cc2)(c2ccc(Cl)cc2)c2ccccc21
- TGI [2]: > 100 µM
- TGI [3]: > 100 µM
- TGI [4]: > 100 µM
- TGI [5]: 89.9 µM
- TGI [6]: > 100 µM
- TGI [7]: > 100 µM
- TGI [8]: > 100 µM
- TGI [9]: > 100 µM
- TGI [10]: > 100 µM
- TGI [11]: > 100 µM

Structure (SMILES): Cc1cc(C#N)c(Nc2c(C)cccc2[N+](=O)[O-])s1
- TGI [2]: > 100 µM
- TGI [3]: 89.3 µM
- TGI [4]: > 100 µM
- TGI [5]: > 100 µM
- TGI [6]: > 100 µM
- TGI [7]: > 100 µM
- TGI [10]: > 100 µM
- TGI [11]: 79.4 µM

Structure (SMILES): COc1cc2c(cc1OC)C(Cc1c3ccccc3cc3ccccc13)N(C)CC2 (centres undefined)
- TGI [1]: 32.6 µM
- TGI [2]: 40.3 µM
- TGI [4]: 35.9 µM
- TGI [6]: > 100 µM
- TGI [7]: > 100 µM
- TGI [8]: 35.3 µM
- TGI [10]: > 71.5 µM

Structure (SMILES): S=C(Nc1ccccc1)N1N=C2c3ccccc3CC[C@H]2[C@@H]1c1ccccc1
- TGI [1]: > 100 µM
- TGI [2]: > 100 µM
- TGI [3]: > 100 µM
- TGI [4]: > 100 µM
- TGI [5]: 1.96 µM
- TGI [6]: > 100 µM
- TGI [7]: > 100 µM
- TGI [9]: > 100 µM
- TGI [10]: > 100 µM

Structure (SMILES): CC(=O)OCc1cn(S(=O)(=O)c2ccc(C)cc2)cn1
- TGI [2]: > 100 µM
- TGI [3]: > 100 µM
- TGI [5]: > 100 µM
- TGI [6]: > 100 µM
- TGI [7]: > 100 µM
- TGI [8]: > 100 µM
- TGI [9]: > 100 µM
- TGI [10]: > 100 µM
- TGI [11]: > 100 µM

Structure (SMILES): Cn1c(=O)c2nc(N3CCCCC3)cnc2n(C)c1=O
- TGI [2]: > 100 µM
- TGI [3]: > 100 µM
- TGI [4]: > 100 µM
- TGI [5]: > 100 µM
- TGI [6]: > 100 µM
- TGI [7]: > 100 µM
- TGI [8]: > 100 µM
- TGI [9]: > 100 µM
- TGI [10]: > 100 µM

Structure (SMILES): COc1cc(OC)nc(Nc2c(C#N)c3nc4ccccc4n3c3ccccc23)n1
- TGI [1]: 71.1 µM
- TGI [2]: > 100 µM
- TGI [4]: > 100 µM
- TGI [6]: > 100 µM
- TGI [8]: > 100 µM
- TGI [9]: 74.2 µM
- TGI [10]: > 100 µM

Structure (SMILES): N#CC(c1cc(Cl)ncn1)c1nc2ccccc2s1 (centres undefined)
- TGI [2]: 22.7 µM
- TGI [3]: 24.6 µM
- TGI [4]: > 100 µM
- TGI [6]: > 100 µM
- TGI [7]: 7.49 µM
- TGI [8]: 33.1 µM
- TGI [9]: > 100 µM
- TGI [10]: 22 µM
- TGI [11]: 60.4 µM

Structure (SMILES): CN1OC2OC(=O)OC2[C@H]1[C@H]1O[C@H](c2ccccc2)OC1(C)c1cc(OC(=O)c2ccccc2)ccc1OC(=O)c1ccccc1 (some centres undefined)
- TGI [1]: > 50 µM
- TGI [2]: > 50 µM
- TGI [3]: > 50 µM
- TGI [4]: > 50 µM
- TGI [5]: > 50 µM
- TGI [6]: > 50 µM
- TGI [7]: > 50 µM
- TGI [8]: > 50 µM
- TGI [9]: > 50 µM
- TGI [10]: > 50 µM

Structure (SMILES): CCNCCCCNCC
- TGI [1]: > 3750 µM
- TGI [2]: > 3750 µM
- TGI [3]: > 3750 µM
- TGI [4]: > 3750 µM
- TGI [6]: > 3750 µM
- TGI [7]: > 3750 µM
- TGI [8]: > 3750 µM
- TGI [10]: > 3750 µM

Structure (SMILES): Cc1nn(C)c2c1C(=O)N(C)CC(=O)N2C
- TGI [2]: > 100 µM
- TGI [3]: > 100 µM
- TGI [4]: > 100 µM
- TGI [5]: > 100 µM
- TGI [6]: > 100 µM
- TGI [7]: > 100 µM
- TGI [8]: > 100 µM
- TGI [9]: > 100 µM
- TGI [10]: > 100 µM

Structure (SMILES): NC(N)=Nc1nc2ccccc2[nH]1
- GI50 [1]: 95 mg/L (≈ 542 µM)
- TGI [1]: > 150 mg/L
- GI50 [2]: 49.3 mg/L (≈ 282 µM)
- TGI [2]: > 150 mg/L
- GI50 [3]: 47.4 mg/L (≈ 271 µM)
- TGI [3]: 47.4 mg/L
- GI50 [4]: 53.1 mg/L (≈ 303 µM)
- TGI [4]: > 150 mg/L
- GI50 [6]: 61 mg/L (≈ 348 µM)
- TGI [6]: > 150 mg/L
- GI50 [7]: 72.9 mg/L (≈ 416 µM)
- TGI [7]: > 150 mg/L
- GI50 [8]: 31.1 mg/L (≈ 178 µM)
- TGI [8]: 99 mg/L
- GI50 [10]: 60.6 mg/L (≈ 346 µM)
- TGI [10]: > 150 mg/L

Structure (SMILES): CC1=C2C(O)C(C(C)C(=O)NC(C)C)CCC2(C)C=CC1=O (centres undefined)
- TGI [1]: > 100 µM
- TGI [2]: > 100 µM
- TGI [4]: > 100 µM
- TGI [6]: > 100 µM
- TGI [7]: > 100 µM
- TGI [8]: > 100 µM
- TGI [10]: > 100 µM

Structure (SMILES): COc1cccc(-n2c(N)c(-c3nc4cc(C(F)(F)F)ccc4s3)c3ccc([N+](=O)[O-])cc3c2=O)c1
- TGI [1]: > 100 µM
- TGI [2]: > 100 µM
- TGI [3]: > 100 µM
- TGI [4]: > 100 µM
- TGI [6]: > 100 µM
- TGI [7]: > 100 µM
- TGI [8]: > 100 µM
- TGI [9]: > 100 µM
- TGI [11]: > 100 µM

Structure (SMILES): CCCCCCCC/C=C/CCCCCCCC1CC(O)C(=O)O1 (centres undefined)
- TGI [2]: > 100 µM
- TGI [3]: > 100 µM
- TGI [5]: > 100 µM
- TGI [6]: > 100 µM
- TGI [8]: > 100 µM
- TGI [9]: > 100 µM
- TGI [10]: > 100 µM
- TGI [11]: > 100 µM

Structure (SMILES): Cc1cc(N=Nc2ccc(N=Nc3c(O)c(S(=O)(=O)O)cc4cc(S(=O)(=O)O)ccc34)cc2C)ccc1N=Nc1ccc2cc(S(=O)(=O)O)cc(S(=O)(=O)O)c2c1
- TGI [1]: > 100 µM
- TGI [2]: > 100 µM
- TGI [3]: > 100 µM
- TGI [4]: > 100 µM
- TGI [6]: > 100 µM
- TGI [7]: > 100 µM
- TGI [8]: > 100 µM
- TGI [10]: > 100 µM

Structure (SMILES): O=C(O)CNS(=O)(=O)c1ccc(NC(=O)Nc2ccccc2)cc1
- TGI [1]: > 100 µM
- TGI [2]: > 100 µM
- TGI [3]: > 100 µM
- TGI [4]: > 100 µM
- TGI [6]: > 100 µM
- TGI [7]: > 100 µM
- TGI [8]: > 100 µM
- TGI [10]: > 100 µM

Structure (SMILES): N#Cc1c2nc3ccccc3nc2n2ccc3ccccc3c12
- TGI [1]: > 100 µM
- TGI [2]: > 100 µM
- TGI [3]: > 100 µM
- TGI [4]: > 100 µM
- TGI [6]: > 100 µM
- TGI [7]: > 100 µM
- TGI [8]: > 100 µM
- TGI [9]: > 100 µM

Structure (SMILES): O=c1[nH]c(=O)n(C2CC(O)C(CO)O2)cc1C#Cc1cc(F)cc(F)c1 (centres undefined)
- TGI [1]: > 100 µM
- TGI [3]: > 100 µM
- TGI [4]: > 100 µM
- TGI [6]: > 100 µM
- TGI [7]: > 100 µM
- TGI [8]: > 100 µM
- TGI [10]: > 100 µM

Structure (SMILES): COc1cc2c(cc1O)C(C)Cc1cc3c(cc1N(C)CC2)OCO3 (centres undefined)
- TGI [1]: 38.1 µM
- TGI [2]: > 35.2 µM
- TGI [3]: 20.1 µM
- TGI [4]: 17.8 µM
- TGI [5]: > 100 µM
- TGI [6]: 32.6 µM
- TGI [7]: 18.3 µM
- TGI [8]: 10 µM
- TGI [9]: > 91.4 µM
- TGI [10]: > 56.4 µM

Structure (SMILES): CC(NC(=O)C(N)CC(=O)O)NC(=O)N1CCCC1 (centres undefined)
- TGI [1]: > 100 µM
- TGI [2]: > 100 µM
- TGI [3]: > 100 µM
- TGI [4]: > 100 µM
- TGI [6]: > 100 µM
- TGI [7]: > 100 µM
- TGI [8]: > 100 µM
- TGI [9]: > 100 µM
- TGI [10]: > 100 µM
- TGI [11]: > 100 µM

Structure (SMILES): Cc1cc(-c2ccccc2)cc2[n+]1CC=C2
- TGI [1]: > 100 µM
- TGI [2]: > 100 µM
- TGI [3]: > 100 µM
- TGI [4]: > 100 µM
- TGI [6]: > 100 µM
- TGI [7]: > 100 µM
- TGI [9]: > 100 µM
- TGI [10]: > 100 µM
